Results on 24 compounds are retold here after patent publication US11440913B2, “Aminoimidazopyridazines as kinase inhibitors” (BRISTOL-MYERS SQUIBB COMPANY, priority 2017, dated 2022).

In general, IC50 refers to the concentration that gives 50% inhibition.

Assay [1] concerns MLKL phosphorylation in HT29-L23 human colorectal adenocarcinoma cells. As to the kind of experiment: MLKL Phosphorylation High-Content Assay. The format is cell-based. The settings on record: necroptosis induced with TNFα, SMAC mimetic and Z-VAD, 6 h, read-out: pMLKL (IC50). The gist of the method:
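HT29-L23 cells pretreated 30 min at 37 °C with compound (6.25 to 0.106 μM final), then necroptosis induced with TNFα 35 ng/mL, SMAC mimetic 700 nM and Z-VAD 140 nM for 6 h. Fixed cells immunostained for MLKL pS358 and imaged; IC50 and Ymax from 4-parameter logistic fit.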

Assay [2] addresses His-GST-TVMV-hRIPK1(1-324) (Homo sapiens (Human), UniProt Q13546). Put plainly: RIPK1 HTRF Binding Assay. The settings on record: HTRF binding, 1 h at rt, read-out: RIPK1 (IC50). The method in brief:
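HTRF probe-displacement binding: 1 nM His-GST-TVMV-hRIPK1(1-324) (baculovirus construct), 90.6 nM probe, 0.2 nM anti-GST-Tb in 20 mM HEPES, 10 mM MgCl2, 0.015% Brij-35, 4 mM DTT, 0.05 mg/mL BSA. Incubated 1 h at rt; FRET 520/495 nm ratio, inhibition relative to DMSO-only wells.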
(Time-resolved FRET reads energy transfer from a long-lived donor to a nearby acceptor.)

Where a name gives a salt, the structure may show the parent alone. Read-outs that look alike come from different tables or passages of the source.

His-GST-TVMV-hRIPK1(1-324), sequence (Q13546 1-324): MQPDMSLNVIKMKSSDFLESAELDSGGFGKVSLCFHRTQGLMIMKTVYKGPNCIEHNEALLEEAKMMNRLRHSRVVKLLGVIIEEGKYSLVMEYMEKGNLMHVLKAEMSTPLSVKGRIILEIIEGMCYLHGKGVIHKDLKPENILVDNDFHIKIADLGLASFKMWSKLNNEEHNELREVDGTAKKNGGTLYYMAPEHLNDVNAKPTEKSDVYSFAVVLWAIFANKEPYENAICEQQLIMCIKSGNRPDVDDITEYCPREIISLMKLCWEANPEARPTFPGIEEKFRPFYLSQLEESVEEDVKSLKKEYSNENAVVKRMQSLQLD

In the case of `COc1ncc(-c2ccc3nc(NC(C)=O)cn3n2)cc1C(=O)N[C@H](C)c1cc(C(F)(F)F)ccc1F` [Example 107, 5-{2-acetamidoimidazo[1,2-b]pyridazin-6-yl}-N-[(1R)-1-[2-fluoro-5-(trifluoromethyl)phenyl](2,2,2-deutero)ethyl]-2-methoxypyridine-3-carboxamide], the IC50 in assay [1] is 306 nM; in assay [2], 193 nM.
For the compound `COc1ncc(-c2ccc3nc(NC(C)=O)cn3n2)cc1C(=O)NCc1ccccc1OCC(F)(F)F` [Example 108, 5-{2-acetamidoimidazo[1,2-b]pyridazin-6-yl}-2-methoxy-N-{[2-(2,2,2-trifluoroethoxy)phenyl]meth-yl}pyridine-3-carboxamide], the values for the IC50 in assay [1] (Homo sapiens) and in assay [2] were 28 nM and 4 nM, respectively.
In the case of `COc1ncc(-c2ccc3nc(NC(C)=O)cn3n2)cc1C(=O)N[C@H](C)c1cc(OC(F)(F)F)ccc1F` [Example 109, 5-{2-acetamidoimidazo[1,2-b]pyridazin-6-yl}-N-[(1R)-1-[2-fluoro-5-(trifluoromethoxy)phenyl](2,2,2-deutero)ethyl]-2-methoxypyridine-3-carboxamide], the 50% inhibitory concentration (IC50) in assay [1] amounted to 85 nM; in assay [2] it was 32 nM.
On the same counts, the results for `COc1ncc(-c2ccc3nc(NC(C)=O)cn3n2)cc1C(=O)NCc1cccc(C(F)(F)F)c1` [Example 110, 5-{2-acetamidoimidazo[1,2-b]pyridazin-6-yl}-2-methoxy-N-{[3-(trifluoromethyl)phen-yl](deutero)methyl}pyridine-3-carboxamide] are 113 nM and 27 nM.
The corresponding values for `COc1ncc(-c2ccc3nc(NC(C)=O)cn3n2)cc1C(=O)NCc1cc(C(F)(F)F)ccc1F` [Example 111, 5-{2-acetamidoimidazo[1,2-b]pyridazin-6-yl}-N-{[2-fluoro-5-(trifluoromethyl)phen-yl](deutero)methyl}-2-methoxypyridine-3-carboxamide] are 36 nM and 19 nM.
Consider `COc1ncc(-c2ccc3nc(NC(C)=O)cn3n2)cc1C(=O)N[C@H](C)c1cccc(OC(F)(F)F)c1` [Example 112, 5-{2-acetamidoimidazo[1,2-b]pyridazin-6-yl}-2-methoxy-N-[(1R)-1-[3-(trifluoromethoxy)phenyl](2,2,2-deutero)ethyl]pyridine-3-carboxamide], for which the IC50 in assay [1] was 73 nM; in assay [2] it was 17 nM.
Regarding `COc1ncc(-c2ccc3nc(NC(C)=O)cn3n2)cc1C(=O)NCc1ccccc1CN1CCOCC1` [Example 113, 5-{2-acetamidoimidazo[1,2-b]pyridazin-6-yl}-2-methoxy-N-({2-[(morpholin-4-yl)methyl]phenyl}methyl)pyridine-3-carboxamide, 2 TFA], the IC50 is 298 nM in assay [1] and 38 nM in assay [2].
The corresponding values for `COc1ncc(-c2ccc3nc(NC(C)=O)cn3n2)cc1C(=O)NCc1ccccc1COC(C)C` [Example 114, 5-{2-acetamidoimidazo[1,2-b]pyridazin-6-yl}-2-methoxy-N-({2-[(propan-2-yloxy)methyl]phenyl}meth-yl)pyridine-3-carboxamide, TFA] are 33 nM and 8 nM.
Regarding `COc1ncc(-c2ccc3nc(NC(C)=O)cn3n2)cc1C(=O)NCc1cc(F)cc(F)c1OC1COC1` [Example 115, N-{[3,5-difluoro-2-(oxetan-3-yloxy)phenyl]methyl}-5-{2-acetamidoimidazo[1,2-b]pyridazin-6-yl}-2-methoxypyridine-3-carboxamide], the IC50 in assay [1] (Homo sapiens) is 65 nM; in assay [2], 12 nM.
The corresponding values for `COc1ncc(-c2ccc3nc(NC(C)=O)cn3n2)cc1C(=O)NCc1cc(F)cc(F)c1OCC(C)C` [Example 116, N-{[3,5-difluoro-2-(2-methylpropoxy)phenyl]methyl}-5-{2-acetamidoimidazo[1,2-b]pyridazin-6-yl}-2-methoxypyridine-3-carboxamide] are 3 nM and 10 nM.
The corresponding values for `COc1ncc(-c2ccc3nc(NC(C)=O)cn3n2)cc1C(=O)NCc1ccccc1OCC(C)C` [Example 117, 5-{2-acetamidoimidazo[1,2-b]pyridazin-6-yl}-2-methoxy-N-{[2-(2-methyl-propoxy)phenyl]methyl}pyridine-3-carboxamide] are 19 nM and 6 nM.
`COc1ncc(-c2ccc3nc(NC(C)=O)cn3n2)cc1C(=O)NCc1cc(F)cc(F)c1OC1CC1` [Example 118, N-[(2-cyclopropoxy-3,5-difluorophenyl)methyl]-5-{2-acetamidoimidazo[1,2-b]pyridazin-6-yl}-2-methoxypyridine-3-carboxamide]: the IC50 stood at 28 nM in assay [1] (Homo sapiens) and 2 nM in assay [2].
On the same counts, the results for `COc1ncc(-c2ccc3nc(NC(C)=O)cn3n2)cc1C(=O)NCC[C@H](O)c1ccc(Cl)cc1` [Example 119, N-[(3S)-3-(4-chlorophenyl)-3-hydroxypropyl]-5-{2-acetamidoimidazo[1,2-b]pyridazin-6-yl}-2-methoxypyridine-3-carboxamide] are 94 nM and 116 nM.
On the same counts, the results for `COc1ncc(-c2ccc3nc(NC(C)=O)cn3n2)cc1C(=O)NCc1ccc(F)cc1OC(F)(F)F` [Example 120, 5-{2-acetamidoimidazo[1,2-b]pyridazin-6-yl}-N-{[4-fluoro-2-(trifluoromethoxy)phenyl]methyl}-2-methoxypyridine-3-carboxamide] are 383 nM and 170 nM.
With `COc1ncc(-c2ccc3nc(NC(C)=O)cn3n2)cc1C(=O)NCc1cc(F)cc(F)c1OCC1CC1` [Example 121, N-({2-[cyclopropyl(deutero)methoxy]-3,5-difluorophenyl}methyl)-5-{2-acetamidoimidazo[1,2-b]pyridazin-6-yl}-2-methoxypyridine-3-carboxamide], the values for the IC50 in assay [1] and in assay [2] were 9 nM and 3 nM, respectively.
With `COc1ncc(-c2ccc3nc(NC(C)=O)cn3n2)cc1C(=O)NC(C)c1c(F)cccc1OCC1CC1` (stereo not drawn) [Example 122, N-{1-[2-(cyclopropylmethoxy)-6-fluorophenyl]ethyl}-5-{2-acetamidoimidazo[1,2-b]pyridazin-6-yl}-2-methoxypyridine-3-carboxamide, TFA], the IC50 came to 15 nM in assay [1] (TFA) and 5 nM in assay [2] (TFA).
For the compound `COc1ncc(-c2ccc3nc(NC(C)=O)cn3n2)cc1C(=O)NC(C)c1cccc(OC(F)(F)F)c1` (stereo not drawn) [Example 123, 5-{2-acetamidoimidazo[1,2-b]pyridazin-6-yl}-2-methoxy-N-{1-[3-(trifluoro-methoxy)phenyl]ethyl}pyridine-3-carboxamide], the figures for the IC50 in assay [1] (Homo sapiens) and in assay [2] were 218 nM and 37 nM, respectively.
With `COc1ncc(-c2ccc3nc(NC(C)=O)cn3n2)cc1C(=O)NC(C)c1c(F)cccc1OCC1CC1` (stereo not drawn) [Example 124, N-{1-[2-(cyclopropylmethoxy)-6-fluorophenyl]ethyl}-5-{2-acetamidoimidazo[1,2-b]pyridazin-6-yl}-2-methoxypyridine-3-carboxamide, TFA], the figures for the IC50 in assay [1] (TFA) and in assay [2] (TFA) were 14 nM and 6 nM, respectively.
Consider `COc1ncc(-c2ccc3nc(NC(C)=O)cn3n2)cc1C(=O)NC(C)c1cccc(OC(F)(F)F)c1` (stereo not drawn) [Example 125, 5-{2-acetamidoimidazo[1,2-b]pyridazin-6-yl}-2-methoxy-N-{1-[3-(trifluoro-methoxy)phenyl]ethyl}pyridine-3-carboxamide], for which the results for the IC50 in assay [1] and in assay [2] were 153 nM and 34 nM, respectively.
For `COc1ncc(-c2ccc3nc(NC(C)=O)cn3n2)cc1C(=O)NCc1cccc(OC(F)(F)F)c1` [Example 126, 5-{2-acetamidoimidazo[1,2-b]pyridazin-6-yl}-2-methoxy-N-{[3-(trifluoro-methoxy)phenyl]methyl}pyridine-3-carboxamide], the IC50 in assay [1] (Homo sapiens) was determined as 78 nM; in assay [2], 73 nM.
The corresponding values for `COc1ncc(-c2ccc3nc(NC(C)=O)cn3n2)cc1C(=O)NCc1c(F)ccc(F)c1OCC1CC1` [Example 127, N-{[2-(cyclopropylmethoxy)-3,6-difluorophenyl]methyl}-5-{2-acetamidoimidazo[1,2-b]pyridazin-6-yl}-2-methoxypyridine-3-carboxamide] are 33 nM and 4 nM.
Regarding `COc1ncc(-c2ccc3nc(NC(C)=O)cn3n2)cc1C(=O)NCc1c(F)cccc1OC1CCOCC1` [Example 128, 5-{2-acetamidoimidazo[1,2-b]pyridazin-6-yl}-N-{[2-fluoro-6-(oxan-4-yloxy)phenyl]methyl}-2-methoxypyridine-3-carboxamide, TFA], the figures for the IC50 in assay [1] and in assay [2] were 64 nM and 9 nM, respectively.
The corresponding values for `COc1ncc(-c2ccc3nc(NC(C)=O)cn3n2)cc1C(=O)NCc1cc(F)cc(F)c1OC1CCOCC1` [Example 129, N-{[3,5-difluoro-2-(oxan-4-yloxy)phenyl]methyl}-5-{2-acetamidoimidazo[1,2-b]pyridazin-6-yl}-2-methoxypyridine-3-carboxamide, TFA] are 2 nM and 1 nM.
The corresponding values for `COc1ncc(-c2ccc3nc(NC(C)=O)cn3n2)cc1C(=O)NC(C)c1cc(F)cc(F)c1OCC1CC1` (stereo not drawn) [Example 130, N-{1-[2-(cyclopropylmethoxy)-3,5-difluorophenyl]ethyl}-5-{2-acetamidoimidazo[1,2-b]pyridazin-6-yl}-2-methoxypyridine-3-carboxamide] are 3 nM and 4 nM.
